Test results as given in patent publication US20220202912A1, “Polypeptides in Preparation of Drugs for Treatment or Prevention of Rheumatoid Arthritis” (priority 2011, published 2022).

Test system: CIA transgenic TNF-luc mice
Test: collagen type II-induced arthritis in transgenic TNF-luc mice (swelling, scores, weight)
Type: in vivo, BALB/c transgenic TNF-luc mice
Parameters: key to joint index score / arthritis index score: 0–4 per paw, four paws summed, max 16
Details: Adalimumab 8 mg/kg, mPEG-SC20k-HM-3 20 mg/kg; for right ankle swelling changes: CIA TNF-luc mice; for clinical score (Table 32, kg) / arthritis index score / clinical score: CIA chronic model
Procedure: 8 animals are randomly divided into 4 groups (n=2), a normal group, a model group, a positive drug group and a test group. On day 0, for the primary immunization, mice are hypodermically injected with 50 μL collagen emulsifier (containing CII 100 μg/ mouse) at the tail root of mice for sensitization. On day 0, initial ankle widths, initial foot palm widths and initial toe thicknesses of left and right feet of mice in each group are measured separately.
After day 21, the same dosage of emulsifier is used for second immunization at the tail root. After the symptoms such as redness and swelling of joints appear on the four toes of mice, continuous administration is performed for 15 days. The normal group and the model group are separately hypodermically injected with 0.9% normal saline (0.2 mL/20 g of body weight), once every 2 days, 7 times in total. The positive drug Adalimumab group is hypodermically injected with Adalimumab (8 mg/kg of body weight), once every 15 days, once in total. The test treatment group is hypodermically injected with mPEG-SC20k-HM-3 (20 mg/kg of body weight), once every 2 days, 7 times in total.
Every 2 days, the thickness of the ankle, the width of the foot palm and the thickness of the toes of each group of mice are measured with a vernier caliper.
Swelling degree of left ankle (cm)=swelling thickness of left ankle on day n of the experiment−measured initial thickness of left ankle.
Swelling degree of right ankle (cm)=swelling thickness of right ankle on day n of the experiment−measured initial thickness of right ankle.
The joints of the mouse paw are observed with naked eyes, and the joints are scored every 2 days from day 30. Scoring is performed in terms of level 0 to level 4, 5 levels in total. 0=no erythema or swelling; 1=slight erythema or swelling, with erythema or swelling on one of the front/hind toe joints; 2=erythema or swelling on more than one toe; 3=swelling of paw beneath the ankle or wrist joint; 4=swelling of all paws including the ankle joint. Four paws of the mice are scored separately, and the highest score is 16 points.
After the secondary inflammation appears, systemic scoring is performed every 2 days, and the scoring standards are as follows:
Hind foot: no swelling=0 point, swelling of one hind foot=1 point, swelling of two hind feet=2 points.
Front foot: no swelling=0, swelling of one front foot=1 point, swelling of two front feet=2 points.
Ears: no redness symptoms and nodules=0 point, redness symptoms or nodules of one ear=1 point, red symptoms and nodules of two ears=2 points.
Nose: no swelling=0 point, obvious swelling=1 point.
Tail: no nodule=0 point, nodules=1 point; the highest score is 8 points.

Adalimumab [reference compound]
left ankle swelling (0 d): 0.000 ± 0.000 cm | right ankle swelling changes (0 d, mean ± SD): 0.000 ± 0.000 cm | clinical score (Table 32, kg) (0 d, mean ± SD): 0.000 ± 0.000 | left ankle swelling (12 d): 0.006 ± 0.050 cm | right ankle swelling changes (12 d, mean ± SD): 0.010 ± 0.014 cm | clinical score (Table 32, kg) (12 d, mean ± SD): 1.050 ± 0.778 | left ankle swelling (15 d): 0.011 ± 0.072 cm | right ankle swelling changes (15 d, mean ± SD): 0.000 ± 0.028 cm | clinical score (Table 32, kg) (15 d, mean ± SD): 0.940 ± 1.047 | left ankle swelling (18 d): 0.021 ± 0.058 cm | right ankle swelling changes (18 d, mean ± SD): 0.012 ± 0.011 cm | clinical score (Table 32, kg) (18 d, mean ± SD): 0.455 ± 0.247 | left ankle swelling (21 d): 0.001 ± 0.041 cm | right ankle swelling changes (21 d, mean ± SD): 0.007 ± 0.010 cm | clinical score (Table 32, kg) (21 d, mean ± SD): 0.230 ± 0.523 | left ankle swelling (24 d): 0.016 ± 0.048 cm | right ankle swelling changes (24 d, mean ± SD): 0.009 ± 0.007 cm | clinical score (Table 32, kg) (24 d, mean ± SD): 0.550 ± 0.212 | left ankle swelling (27 d): 0.007 ± 0.049 cm | right ankle swelling changes (27 d, mean ± SD): 0.012 ± 0.017 cm | clinical score (Table 32, kg) (27 d, mean): 1.295 | left ankle swelling (30 d): 0.012 cm | right ankle swelling changes (30 d, mean ± SD): 0.008 ± 0.008 cm | clinical score (Table 32, kg) (30 d, mean): 0.975 | arthritis index score (30 d, mean ± SD): 5.00 ± 2.83 | clinical score (30 d, mean ± SD): 5.00 ± 1.41 | left ankle swelling (33 d): 0.011 ± 0.041 cm | right ankle swelling changes (33 d, mean ± SD): 0.011 ± 0.016 cm | arthritis index score (33 d, mean ± SD): 8.00 ± 0.00 | clinical score (33 d, mean ± SD): 5.00 ± 0.00 | clinical score (Table 32, kg) (33 d, mean ± SD): 1.295 ± 0.177 | left ankle swelling (36 d): 0.012 ± 0.042 cm | right ankle swelling changes (36 d, mean ± SD): 0.017 ± 0.007 cm | arthritis index score (36 d, mean ± SD): 8.50 ± 0.71 | clinical score (36 d, mean ± SD): 5.00 ± 0.00 | clinical score (Table 32, kg) (36 d, mean ± SD): 2.200 ± 0.707 | left ankle swelling (39 d): 0.002 ± 0.031 cm | right ankle swelling changes (39 d, mean ± SD): 0.007 ± 0.010 cm | arthritis index score (39 d, mean ± SD): 6.50 ± 0.71 | clinical score (39 d, mean ± SD): 5.00 ± 0.00 | clinical score (Table 32, kg) (39 d, mean ± SD): 2.187 ± 0.443 | left ankle swelling (42 d): 0.003 ± 0.052 cm | right ankle swelling changes (42 d, mean ± SD): 0.012 ± 0.017 cm | arthritis index score (42 d, mean ± SD): 5.50 ± 0.71 | clinical score (42 d, mean ± SD): 5.00 ± 0.00 | clinical score (Table 32, kg) (42 d, mean ± SD): 2.655 ± 1.082 | left ankle swelling (45 d): 0.006 ± 0.051 cm | right ankle swelling changes (45 d, mean ± SD): 0.005 ± 0.021 cm | arthritis index score (45 d, mean ± SD): 5.00 ± 0.00 | clinical score (45 d, mean ± SD): 4.00 ± 0.00 | clinical score (Table 32, kg) (45 d, mean ± SD): 3.085 ± 1.478 | left ankle swelling (48 d): 0.007 ± 0.047 cm | right ankle swelling changes (48 d, mean ± SD): 0.006 ± 0.006 cm | clinical score (Table 32, kg) (48 d, mean): 3.415 | arthritis index score (48 d, mean ± SD): 5.00 ± 1.41 | clinical score (48 d, mean ± SD): 5.00 ± 0.00 | left ankle swelling (51 d): 0.001 cm | right ankle swelling changes (51 d, mean ± SD): 0.004 ± 0.006 cm | clinical score (Table 32, kg) (51 d, mean): 3.835 | arthritis index score (51 d, mean ± SD): 4.50 ± 0.71 | clinical score (51 d, mean ± SD): 4.50 ± 0.71
